From patent publication US11617774B2, “Composition for preventing or treating stroke or degenerative brain disease” (UNIVERSITY-INDUSTRY COOPERATION GROUP OF KYUNG HEE …, priority 2013, dated 2023)

Legend:
[1] = tested on: erythroclasis (hemolysis); conditions: cited from earlier work
[2] = tested on: middle cerebral artery occlusion model rats; assay: Safety evaluation: death rate of experimental animals in the middle cerebral artery occlusion model; type: in vivo, Sprague-Dawley (SD) rats; conditions: MCAo rats, from the time of administration until sacrifice; intravenous: oleic acid 100 mg/kg, sodium oleate solution 3 mg/kg, Clinoleic20% 200 mg/kg, SMOFlipid20% 500 mg/kg
Protocol: Right after degenerative brain disease induction, death rate was calculated by counting number of dead animals in every group from the time of administration until they were sacrificed.

[3] = tested on: middle cerebral artery occlusion model rats; assay: Neuroprotective effect in middle cerebral artery occlusion model (MCAo), TTC staining of brain slices; type: in vivo, Sprague-Dawley (SD) rats; conditions: intravenous right after ischemia induction: Clinoleic20% 200 mg/kg, SMOFlipid20% 500 mg/kg, oleic acid 100 mg/kg, sodium oleate solution 3 mg/kg, TTC staining 24 hours after reperfusion
Protocol: 8 week-old adult male Sprague-Dawley (SD) rats, obtained from Samtako (Korea), weighing 300 g were kept in an environment to adapt to the experimental environment while providing enough feed and water. After one week of adaptation period, the animals were used for the following experiments.
In detail, a nylon suture (4-0, 22 mm) was prepared by silicone coating about 5-8 mm of the end of the suture to have 0.36 mm of diameter, and was used for experiment. The rats prepared in Experimental Example 1.1 were anesthetized with 5% of isoflurane in a mixture of gas (i.e. 70% N2O and 30% O2). A syringe was inserted in one side for blood collection and a probe was inserted in the other side to measure blood pressure. Then the blood glucose level and the blood gas level in the collected blood were measured.
Through midline neck incision, right carotid artery and external carotid artery (ECA), which are branches of external carotid artery, were separated. […]
24 hours after the reperfusion, the animals were sacrificed by cervical spine dislocation. […] The files were stored in a computer, and the infarct area (%) in each tissue slice was calculated according to the following equation 1 by using an analysis program (i.e. Optimas 6.5, Bioscan). The adjusted volume of the infarct area was calculated through following Equation 2. […]

[4] = tested on: transient local cerebral ischemia rat model; conditions: cited from earlier work

Row | Structure (SMILES) | erythroclasis (hemolysis) in an in vitro test [1] | Death Rate (%) [2] | Number of Dead Animals [2] | TTC-unstained area (neuronal cell death) of brain slices compared to the control group [3] | protective / neuroprotective efficacy [4]
1 | CCCCCCCC/C=C\CCCCCCCC(=O)O [Oleic Acid, oleic acid] | incurs erythroclasis (hemolysis) | 18.1% | 21 | less TTC-unstained area | superior neuroprotective efficacy
2 | CCCCCCCC/C=C\CCCCCCCC(=O)[O-].[Na+] [Sodium Oleate, sodium oleate] |  | 21.6% | 8 | less TTC-unstained area | 
